The values below come from patent publication US20220402862A1 (Intellia Therapeutics, Inc., priority 2019, published 2022).

Experiment [1] deals with mouse B2M gene. As to the kind of experiment: In vivo editing in mouse spleen, G650 sgRNA, % indel by NGS. More on the design: species or system CD-1 female mice. Conditions: experiment 108. How it is done: (§1) In brief, to quantitatively determine the efficiency of editing at the target location in the genome, genomic DNA was isolated and deep sequencing was utilized to identify the presence of insertions and deletions introduced by gene editing.
(§2) PCR primers were designed around the target site (e.g., within B2M), and the genomic area of interest was amplified. Additional PCR was performed according to the manufacturer's protocols (Illumina) to add the necessary chemistry for sequencing. The amplicons were sequenced on an Illumina MiSeq instrument. The reads were aligned to the mouse or rat reference genome (e.g., GRCm38) after eliminating those having low quality scores. The resulting files containing the reads were mapped to the reference genome (BAM files), where reads that overlapped the target region of interest were selected and the number of wild type reads versus the number of reads which contain an insertion, substitution, or deletion was calculated.
(§3) The editing percentage (e.g., the “indel efficiency” or “percent indels”) was defined as the total number of sequence reads with insertions or deletions over the total number of sequence reads, including wild type.
The in vivo delivery to liver, spleen, and bone marrow was assessed by measuring editing efficiency for materials delivered with formulations including various amine lipid compounds. […] LNPs were formulated at a 1:2 w/w ratio of sgRNA to Cas9 mRNA and at an N/P ratio of about 6. Molar concentrations of lipids in the lipid component of the LNPs are used at mol % amine lipid/DSPC/cholesterol/PEG-2k-DMG of 50/9/38/3. The final LNPs compositions were characterized and analyzed as described in Example 120. Analysis of average particle size, polydispersity (PDI), total RNA content and encapsulation efficiency of RNA are shown in Table 8.
CD-1 female mice were dosed i.v. at 0.1, 0.3, or 1 mg/kg and assessed for editing in liver, spleen, and bone marrow.

Experiment [2] has as its system mouse B2M gene. As to the kind of experiment: In vivo editing in mouse bone marrow, G650 sgRNA, % indel by NGS. Conditions: G650, i.v. dose 1 mg/kg, experiment 108. Also noted: species or system CD-1 female mice. As to the method: [Worded in the source for another target; this target is reported under the same test.] as §1, §2, §3
The in vivo delivery to liver, spleen, and bone marrow was assessed by measuring editing efficiency for materials delivered with formulations including various amine lipid compounds. […]

The next experiment has as its system TTR rat gene. In words: In vivo editing in rat liver, sgRNA targeting TTR (G534), % indel by NGS. Also noted: species or system Sprague Dawley female rats. Conditions: G534 sgRNA + Cas9 mRNA LNP, Experiment 109. As to the method: Sprague Dawley female rats ranging from 6-7 weeks of age were used in each study. Each animal was weighed and dosing solutions were prepared based on body weight. LNPs were dosed via the lateral tail vein in a volume of 0.35 mL per animal (approximately 2 mL per kilogram body weight). The animals were periodically observed for adverse effects for at least 24 hours post dose.
For studies measuring in vivo editing in liver, animals were dosed at 0.1 mg/kg or 0.3 mg/kg. Animals were euthanized by CO2 asphyxiation 6 days post dose. At necropsy, the liver was collected for editing analysis by NGS and blood was collected into serum separator tubes for serum TTR measurement.
as §1, §2, §3
In vivo delivery in a rat model was assessed by measuring editing efficiency for materials delivered with formulations including various amine lipid compounds. Cas9 mRNA (SEQ ID NO: 6) was formulated as LNPs with an sgRNA targetting the TTR rat gene (G534, SEQ ID NO: 5). LNPs were formulated and characterized as described in Example 123. Analysis of average particle size, polydispersity (PDI), total RNA content and encapsulation efficiency of RNA are shown in Table 10.
Sprague Dawley female rats were dosed i.v. at 0.1 or 0.3 mg/kg and assessed for editing in liver.

For the molecule `CCCCC/C=C\C/C=C\CCCCCCCC(=O)OCC(COC(=O)CCC(OCCCCCCCC)OCCCCCCCC)COC(=O)OCCCN(CC)CC` (centres unmarked) [Compound 1, 3-((4,4-bis(octyloxy)butanoyl)oxy)-2-((((3-(diethylamino)propoxy)carbonyl)oxy)methyl)propyl (9Z,12Z)-octadeca-9,12-dienoate, reference compound], the “% Editing in Spleen” value in the experiment with mouse B2M gene [1] (G650, i.v. dose 0.1 mg/kg) is listed as 0.62%; with mouse B2M gene [1] (G650, i.v. dose 0.3 mg/kg), 2.2%; with mouse B2M gene [1] (G650, i.v. dose 1 mg/kg), 6.26%. In the experiment with mouse B2M gene [2], the “% Editing in BM” value was 2.66%. Moreover, the “Editing Mean % Indel” value in the experiment on TTR rat gene (i.v. 0.1 mg/kg) was determined as 21.1%; with TTR rat gene (i.v. 0.3 mg/kg), 61.3%.
Regarding `CCCCCCCCCCOC(=O)CCCCCCCC(=O)OCC(COC(=O)CCC(OCCCCCCCC)OCCCCCCCC)COC(=O)OCCCN(CC)CC` (centres unmarked) [Compound 59, 1-(3-((4,4-bis(octyloxy)butanoyl)oxy)-2-((((3-(diethylamino)propoxy)carbonyl)oxy)methyl)propyl) 9-decyl nonanedioate], the “Editing Mean % Indel” value in the experiment with TTR rat gene (i.v. 0.1 mg/kg) was determined as 12.4%; in the experiment on TTR rat gene (i.v. 0.3 mg/kg), 46.2%.
The corresponding values for `CCCCCCCCCC(C)OC(=O)CCCCCCCC(=O)OCC(COC(=O)CCC(OCCCCCCCC)OCCCCCCCC)COC(=O)OCCCN(CC)CC` (centres unmarked) [Compound 94, 1-(344,4-bis(octyloxy)butanoyl)oxy)-2-((((3-(diethylamino)propoxy)carbonyl)oxy)methyl)propyl) 9-(undecan-2-yl) nonanedioate] are 31.7% and 60.0%.
For `CCCCC/C=C\C/C=C\CCCCCCCC(=O)OCC(COC(=O)CC12CC3CC(CC(C3)C1)C2)COC(=O)OCCCN(CC)CC` (centres unmarked) [Compound 107, 3-(2-((3 r,5 r, 7r)-adamantan-1-yl)acetoxy)-2-((((3-(diethylamino)propoxy)carbonyl)oxy)methyl)propyl (9Z,12Z)-octadeca-9,12-dienoate], the “% Editing in Spleen” value stood at 0.08% with mouse B2M gene [1] (G650, i.v. dose 0.1 mg/kg); 0.12% in the experiment on mouse B2M gene [1] (G650, i.v. dose 0.3 mg/kg); 0.3% with mouse B2M gene [1] (G650, i.v. dose 1 mg/kg). Also, the “% Editing in BM” value in the experiment with mouse B2M gene [2] is reported as 0.32%.
